In ChEMBL document CHEMBL3580627, “Dibenzazepines and dibenzoxazepines as sodium channel blockers” (Bioorg Med Chem Lett, 2014):
Converted amounts (≈) assume the structure as drawn.

Columns and labels:
[1] = Kinetic solubility of the compound at pH 1.2; assay type: physicochemical; settings: buffer, read-out: Kinetic_solubility
[2] = Kinetic solubility of the compound at pH 6.8; assay type: physicochemical; settings: buffer, read-out: Kinetic_solubility
in vitro [3] = settings: human, liver microsomes
Description: Metabolic stability in human liver microsomes assessed as compound remaining at 1 uM after 30 mins

[4] = target: T1, Sodium channel protein type 9 subunit alpha (Homo sapiens, UniProt Q15858); assay: Inhibition of Nav1.7 (unknown origin) by electrophysiological assay
in vitro [5] = settings: rat, liver microsomes
Description: Metabolic stability in rat liver microsomes assessed as compound remaining at 1 uM after 30 mins

[6] = target: T1, Sodium channel protein type 9 subunit alpha; assay: Inhibition of Nav1.7 (unknown origin) expressed in CHO cells after 45 mins by FLIPR assay; assay type: cell-based

T1 sequence (Q15858 whole entry): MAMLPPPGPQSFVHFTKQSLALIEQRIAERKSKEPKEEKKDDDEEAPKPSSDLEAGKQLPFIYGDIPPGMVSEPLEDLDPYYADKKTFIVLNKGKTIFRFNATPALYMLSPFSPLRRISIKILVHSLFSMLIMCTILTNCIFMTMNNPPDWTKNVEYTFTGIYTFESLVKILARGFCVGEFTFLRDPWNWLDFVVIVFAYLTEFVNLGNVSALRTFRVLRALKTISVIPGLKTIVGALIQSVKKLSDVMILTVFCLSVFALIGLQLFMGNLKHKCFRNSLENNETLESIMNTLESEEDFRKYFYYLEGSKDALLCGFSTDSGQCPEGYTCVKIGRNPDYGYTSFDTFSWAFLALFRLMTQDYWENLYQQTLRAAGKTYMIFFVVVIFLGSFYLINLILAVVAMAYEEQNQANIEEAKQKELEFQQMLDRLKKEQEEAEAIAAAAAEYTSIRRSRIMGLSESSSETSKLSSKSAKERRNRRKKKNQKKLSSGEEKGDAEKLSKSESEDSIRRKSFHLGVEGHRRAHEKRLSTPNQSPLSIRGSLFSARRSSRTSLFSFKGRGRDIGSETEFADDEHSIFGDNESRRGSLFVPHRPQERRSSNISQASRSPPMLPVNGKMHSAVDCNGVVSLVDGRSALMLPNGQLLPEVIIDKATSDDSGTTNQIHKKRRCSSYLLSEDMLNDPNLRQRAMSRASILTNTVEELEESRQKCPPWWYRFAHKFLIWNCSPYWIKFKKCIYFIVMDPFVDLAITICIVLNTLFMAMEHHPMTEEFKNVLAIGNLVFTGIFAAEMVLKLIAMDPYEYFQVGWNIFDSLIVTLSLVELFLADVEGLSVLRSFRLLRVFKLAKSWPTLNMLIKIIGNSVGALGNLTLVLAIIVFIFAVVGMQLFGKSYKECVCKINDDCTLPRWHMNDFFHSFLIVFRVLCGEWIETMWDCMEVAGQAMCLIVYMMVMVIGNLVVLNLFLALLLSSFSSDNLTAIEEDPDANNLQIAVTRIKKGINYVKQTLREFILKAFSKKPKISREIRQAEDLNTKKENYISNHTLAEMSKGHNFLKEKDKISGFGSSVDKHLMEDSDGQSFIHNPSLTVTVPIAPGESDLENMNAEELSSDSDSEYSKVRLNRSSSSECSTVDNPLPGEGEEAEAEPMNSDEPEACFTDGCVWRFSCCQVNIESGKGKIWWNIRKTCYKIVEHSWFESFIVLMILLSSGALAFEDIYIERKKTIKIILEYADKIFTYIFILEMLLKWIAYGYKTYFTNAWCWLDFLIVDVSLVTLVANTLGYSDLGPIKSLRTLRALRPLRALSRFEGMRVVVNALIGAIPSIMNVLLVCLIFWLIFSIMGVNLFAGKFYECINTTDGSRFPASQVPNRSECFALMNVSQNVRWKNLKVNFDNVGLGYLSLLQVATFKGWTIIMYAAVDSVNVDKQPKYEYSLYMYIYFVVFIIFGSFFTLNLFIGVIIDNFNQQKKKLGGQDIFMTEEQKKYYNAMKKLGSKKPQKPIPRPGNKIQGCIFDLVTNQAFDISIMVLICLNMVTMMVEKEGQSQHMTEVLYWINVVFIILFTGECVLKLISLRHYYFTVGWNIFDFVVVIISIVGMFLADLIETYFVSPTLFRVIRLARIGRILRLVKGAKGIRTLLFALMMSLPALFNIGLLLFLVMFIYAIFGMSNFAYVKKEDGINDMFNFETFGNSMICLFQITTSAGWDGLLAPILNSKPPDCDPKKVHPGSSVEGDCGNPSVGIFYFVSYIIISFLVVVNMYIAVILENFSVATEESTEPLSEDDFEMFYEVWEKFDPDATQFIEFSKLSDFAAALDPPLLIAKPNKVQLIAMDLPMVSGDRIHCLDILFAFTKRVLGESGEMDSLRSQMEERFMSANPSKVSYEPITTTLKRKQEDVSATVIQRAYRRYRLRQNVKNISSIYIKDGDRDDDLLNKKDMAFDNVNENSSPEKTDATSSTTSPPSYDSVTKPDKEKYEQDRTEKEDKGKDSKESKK

SMILES	solubility kinetic [1] [µM]	solubility kinetic [2] [µM]	remaining at 0.5 h, 1 µM (in vitro [3]) [%]	Ki [4] [nM]	remaining at 0.5 h, 1 µM (in vitro [5]) [%]	IC50 [6] [nM]
CC(=O)N1c2ccc(Cl)cc2CCc2cc(-c3cccc(C(N)=O)n3)ccc21	12 (≈ 4.7 µg/mL)	7 (≈ 2.74 µg/mL)				
CN1Cc2cc(-c3cccc([C@H](O)CO)n3)ccc2Oc2ccc(C(F)(F)F)cc21	70 (≈ 29.1 µg/mL)	0.4 (≈ 0.167 µg/mL)	98	440	94	
NC(=O)c1cccc(-c2ccc3c(c2)CCc2cc(Cl)ccc2N3)n1	0.2 (≈ 0.07 µg/mL)					
NC(=O)CN1Cc2cc(-c3cccc([C@H](O)CO)n3)ccc2Oc2ccc(C(F)(F)F)cc21	80 (≈ 36.8 µg/mL)	1 (≈ 0.459 µg/mL)	83		91	1800
CN1Cc2cc(C(F)(F)F)ccc2Oc2ccc(-c3cccc([C@H](O)CO)n3)cc21	73 (≈ 30.4 µg/mL)	6 (≈ 2.5 µg/mL)	91	560	74	
CCN1c2ccc(Cl)cc2CCc2cc(-c3cccc(C(N)=O)n3)ccc21	0.2 (≈ 0.0756 µg/mL)					> 10000
CN1c2ccc(-c3cccc([C@H](O)CO)n3)cc2CCc2cc(C(F)(F)F)ccc21	60 (≈ 24.9 µg/mL)	0.1 (≈ 0.0414 µg/mL)	79		72	
CN1Cc2cc(-c3cccc([C@H](O)[C@@H](O)C(N)=O)n3)ccc2Oc2ccc(C(F)(F)F)cc21	70 (≈ 32.2 µg/mL)	0.8 (≈ 0.368 µg/mL)	94	920	93	
OC[C@@H](O)c1cccc(-c2ccc3c(c2)CNc2cc(C(F)(F)F)ccc2O3)n1	80 (≈ 32.2 µg/mL)	12 (≈ 4.83 µg/mL)				
NC(=O)N1c2ccccc2C=Cc2ccccc21 [CARBAMAZEPINE]	75 (≈ 17.7 µg/mL)	74 (≈ 17.5 µg/mL)	38		37	
